Assay results published in PubChem BioAssay AID220 (DTP/NCI, 2004).
Values joined by “and” are separate entries in the source; they are usually repeats but may differ in a detail not shown here. Equal entries are not always repeated. Records with an inconclusive call do not appear.

System: CD8F1 mice, subcutaneous mammary adenocarcinoma, T/C%
Experiment: NCI In Vivo Anticancer Drug Screen. Data for tumor model Mammary Adenocarcinoma CD8F1 (subcutaneous) in CD8F1
Conditions: higher = larger tumour
Procedure, shortened: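 Transplantable tumors were established in mice, animals were dosed with compound or vehicle, and survival or tumor size was then measured in both groups. The treated result was divided by the control result.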

[1] = endpoint: median tumor weight change, dose: 3.12 mg/kg/injection, schedule: Q01DX001 (ip), vehicle: suspension in saline
[2] = endpoint: median tumor weight change, dose: 6.25 mg/kg/injection, schedule: Q01DX001 (ip), vehicle: suspension in saline
[3] = endpoint: median tumor weight change, dose: 12.5 mg/kg/injection, schedule: Q01DX001 (ip), vehicle: suspension in saline
[4] = endpoint: median tumor weight (est.), dose: 12.5 mg/kg/injection, schedule: Q07DX005 (ip), vehicle: Klucel (hydroxypropylcellulose) (HPC)
[5] = endpoint: median tumor weight (est.), dose: 25.0 mg/kg/injection, schedule: Q07DX005 (ip), vehicle: Klucel (hydroxypropylcellulose) (HPC)
[6] = endpoint: median tumor weight (est.), dose: 100.0 mg/kg/injection, schedule: Q07DX005 (ip), vehicle: Klucel (hydroxypropylcellulose) (HPC)
[7] = endpoint: median tumor weight (est.), dose: 200.0 mg/kg/injection, schedule: Q07DX005 (ip), vehicle: Klucel (hydroxypropylcellulose) (HPC)
[8] = endpoint: median tumor weight change, dose: 12.5 mg/kg/injection, schedule: Q01DX001 (ip), vehicle: Klucel (hydroxypropylcellulose) (HPC)
[9] = endpoint: median tumor weight change, dose: 50.0 mg/kg/injection, schedule: Q01DX001 (ip), vehicle: Klucel (hydroxypropylcellulose) (HPC)
[10] = endpoint: median tumor weight (est.), dose: 12.5 mg/kg/injection, schedule: Q07DX005 (ip), vehicle: saline with Tween-80
[11] = endpoint: median tumor weight (est.), dose: 25.0 mg/kg/injection, schedule: Q07DX005 (ip), vehicle: saline with Tween-80
[12] = endpoint: median tumor weight (est.), dose: 50.0 mg/kg/injection, schedule: Q07DX005 (ip), vehicle: saline with Tween-80
[13] = endpoint: median tumor weight change, dose: 125.0 mg/kg/injection, schedule: Q01DX001 (ip), vehicle: saline with Tween-80

Structure (SMILES): C/C=C(\C)c1cc(=O)c2c(C)cc3c(c2o1)C(=O)c1c(O)c(C2CC(C)(N(C)C)C(OC(C)=O)C(C)O2)cc(C2CC(N(C)C)C(O)C(C)O2)c1C3=O (stereo unspecified)
- T/C (endpoint: median tumor weight (est.), dose: 0.15 mg/kg/injection, schedule: Q07DX005 (ip), vehicle: saline): 157 % of control
- T/C (endpoint: median tumor weight (est.), dose: 0.31 mg/kg/injection, schedule: Q07DX005 (ip), vehicle: saline): 100 % of control
- T/C (endpoint: median tumor weight (est.), dose: 0.62 mg/kg/injection, schedule: Q07DX005 (ip), vehicle: saline): 116 % of control
- T/C (endpoint: median tumor weight change, dose: 1.56 mg/kg/injection, schedule: Q01DX001 (ip), vehicle: suspension in saline): 164 % of control
- T/C [1]: 153 % of control
- T/C [2]: 116 % of control
- T/C [3]: 82 % of control
- T/C (endpoint: median tumor weight change, dose: 25.0 mg/kg/injection, schedule: Q01DX001 (ip), vehicle: suspension in saline): 64 % of control

Structure (SMILES): O=C(O)c1c2c(nc3ccccc13)Cc1ccccc1-2
- T/C [4]: 96 % of control
- T/C (endpoint: median tumor weight (est.), dose: 12.5 mg/kg/injection, schedule: Q07DX005 (ip), vehicle: water): 6 % of control
- T/C [5]: 119 % of control
- T/C (endpoint: median tumor weight (est.), dose: 25.0 mg/kg/injection, schedule: Q07DX005 (ip), vehicle: water): 89 % of control
- T/C (endpoint: median tumor weight (est.), dose: 50.0 mg/kg/injection, schedule: Q07DX005 (ip), vehicle: Klucel (hydroxypropylcellulose) (HPC)): 98 % of control
- T/C (endpoint: median tumor weight (est.), dose: 50.0 mg/kg/injection, schedule: Q07DX005 (ip), vehicle: water): 59 % of control
- T/C [6]: 97 % of control
- T/C (endpoint: median tumor weight (est.), dose: 100.0 mg/kg/injection, schedule: Q07DX005 (ip), vehicle: water): 87 % of control
- T/C [7]: 57 % of control
- T/C (endpoint: median tumor weight (est.), dose: 200.0 mg/kg/injection, schedule: Q07DX005 (ip), vehicle: water): 60 % of control

Structure (SMILES): COc1cc2c(c(OC)c1O)-c1ccc(OC)c(=O)cc1[C@@H](NC(=O)C(F)(F)F)CC2
- T/C (endpoint: median tumor weight change, dose: 3.12 mg/kg/injection, schedule: Q01DX001 (ip), vehicle: Klucel (hydroxypropylcellulose) (HPC)): 100 % of control
- T/C (endpoint: median tumor weight change, dose: 6.25 mg/kg/injection, schedule: Q01DX001 (ip), vehicle: Klucel (hydroxypropylcellulose) (HPC)): 203 % of control
- T/C [8]: 74 % of control
- T/C (endpoint: median tumor weight change, dose: 25.0 mg/kg/injection, schedule: Q01DX001 (ip), vehicle: Klucel (hydroxypropylcellulose) (HPC)): 168 % of control
- T/C [9]: 21 % of control

Structure (SMILES): COc1cccc2c1C(=O)c1c(O)c3c(c(O)c1C2=O)C[C@@](O)(C(=O)CO)C[C@@H]3OC1CC(N)CC(C)O1 (stereo partly specified)
- T/C (endpoint: median tumor weight change, dose: 1.8 mg/kg/injection, schedule: Q01DX001 (ip), vehicle: water): 187 % of control
- T/C (endpoint: median tumor weight change, dose: 3.75 mg/kg/injection, schedule: Q01DX001 (ip), vehicle: water): 94 % of control

Structure (SMILES): Cc1c2cc(Cl)c3ccccc3c2c[n+]2ccccc12
- T/C [10]: 52 % of control
- T/C [11]: 52 % of control and 57 % of control
- T/C [12]: 61 % of control and 65 % of control

Structure (SMILES): C[PH+](C)C.C[PH+](C)C.[Au]
- T/C (endpoint: median tumor weight change, dose: 1.5 mg/kg/injection, schedule: Q01DX001 (ip), vehicle: saline): 112 % of control
- T/C (endpoint: median tumor weight change, dose: 3.0 mg/kg/injection, schedule: Q01DX001 (ip), vehicle: saline): 77 % of control
- T/C (endpoint: median tumor weight change, dose: 3.12 mg/kg/injection, schedule: Q01DX001 (ip), vehicle: saline): 95 % of control
- T/C (endpoint: median tumor weight change, dose: 12.5 mg/kg/injection, schedule: Q01DX001 (ip), vehicle: saline): 60 % of control and 80 % of control

Structure (SMILES): F[B-](F)(F)F
- T/C (endpoint: median tumor weight (est.), dose: 12.5 mg/kg/injection, schedule: Q07DX005 (ip), vehicle: gum acacia): 109 % of control
- T/C (endpoint: median tumor weight (est.), dose: 25.0 mg/kg/injection, schedule: Q07DX005 (ip), vehicle: gum acacia): 88 % of control
- T/C (endpoint: median tumor weight (est.), dose: 50.0 mg/kg/injection, schedule: Q07DX005 (ip), vehicle: gum acacia): 83 % of control
- T/C (endpoint: median tumor weight (est.), dose: 100.0 mg/kg/injection, schedule: Q07DX005 (ip), vehicle: gum acacia): 96 % of control
- T/C (endpoint: median tumor weight (est.), dose: 200.0 mg/kg/injection, schedule: Q07DX005 (ip), vehicle: gum acacia): 74 % of control
- T/C (endpoint: median tumor weight (est.), dose: 400.0 mg/kg/injection, schedule: Q07DX005 (ip), vehicle: gum acacia): 90 % of control

Structure (SMILES): Cc1cc(NCCN(C(C)C)C(C)C)nc(/N=C(\N)Nc2ccc(Cl)c(C(F)(F)F)c2)n1
- T/C [8]: 39 % of control and 45 % of control
- T/C [9]: 27 % of control and 39 % of control
- T/C (endpoint: median tumor weight change, dose: 100.0 mg/kg/injection, schedule: Q01DX001 (ip), vehicle: Klucel (hydroxypropylcellulose) (HPC)): 50 % of control and 74 % of control

Structure (SMILES): CCN1/C(=C/C=C/C=C/c2sc3ccccc3[n+]2CC)Sc2ccccc21
- T/C (endpoint: median tumor weight (est.), dose: 0.37 mg/kg/injection, schedule: Q07DX006 (ip), vehicle: saline): 77 % of control
- T/C (endpoint: median tumor weight (est.), dose: 0.75 mg/kg/injection, schedule: Q07DX006 (ip), vehicle: saline): 233 % of control

Structure (SMILES): CCCCCCCC(=O)N/N=C(\CO)[C@]1(O)Cc2c(O)c3c(c(O)c2[C@@H](OC2CC(N)C(O)C(C)O2)C1)C(=O)c1c(OC)cccc1C3=O (stereo partly specified)
- T/C (endpoint: median tumor weight (est.), dose: 1.5 mg/kg/injection, schedule: Q07DX005 (ip), vehicle: saline): 76 % of control
- T/C (endpoint: median tumor weight (est.), dose: 3.0 mg/kg/injection, schedule: Q07DX005 (ip), vehicle: saline): 110 % of control
- T/C (endpoint: median tumor weight (est.), dose: 6.0 mg/kg/injection, schedule: Q07DX005 (ip), vehicle: saline): 37 % of control
- T/C (endpoint: median tumor weight (est.), dose: 12.0 mg/kg/injection, schedule: Q07DX005 (ip), vehicle: saline): 4 % of control

Structure (SMILES): O=S(CCCl)CCCl
- T/C (endpoint: median tumor weight (est.), dose: 1.56 mg/kg/injection, schedule: Q07DX005 (ip), vehicle: Klucel (hydroxypropylcellulose) (HPC)): 75 % of control
- T/C (endpoint: median tumor weight (est.), dose: 3.12 mg/kg/injection, schedule: Q07DX005 (ip), vehicle: Klucel (hydroxypropylcellulose) (HPC)): 100 % of control
- T/C (endpoint: median tumor weight (est.), dose: 6.25 mg/kg/injection, schedule: Q07DX005 (ip), vehicle: Klucel (hydroxypropylcellulose) (HPC)): 230 % of control
- T/C [4]: 91 % of control

Structure (SMILES): NC(=S)c1cn(C2OC(CO)C(O)C2O)c2ncnc(N)c12 (stereo unspecified)
- T/C [1]: 96 % of control
- T/C [2]: 68 % of control
- T/C [3]: 76 % of control

Structure (SMILES): ClCCCCCCCCCCc1ccccc1
- T/C [4]: 87 % of control
- T/C [5]: 88 % of control
- T/C [6]: 71 % of control
- T/C [7]: 71 % of control
- T/C (endpoint: median tumor weight (est.), dose: 400.0 mg/kg/injection, schedule: Q07DX005 (ip), vehicle: Klucel (hydroxypropylcellulose) (HPC)): 72 % of control

Structure (SMILES): O=C(NO)c1ccc(O)c(O)c1
- T/C (endpoint: median tumor weight change, dose: 300.0 mg/kg/injection, schedule: Q01DX001 (ip), vehicle: water): 89 % of control
- T/C (endpoint: median tumor weight change, dose: 600.0 mg/kg/injection, schedule: Q01DX001 (ip), vehicle: water): 48 % of control

Structure (SMILES): O=[N+]([O-])c1ccc(Sc2ccncn2)c([N+](=O)[O-])c1
- T/C (endpoint: median tumor weight change, dose: 62.5 mg/kg/injection, schedule: Q01DX001 (ip), vehicle: saline with Tween-80): 108 % of control
- T/C [13]: 62 % of control

Structure (SMILES): c1cnc2ncncc2n1
- T/C [10]: 84 % of control and 100 % of control
- T/C [11]: 93 % of control and 100 % of control
- T/C [12]: 69 % of control and 84 % of control
- T/C (endpoint: median tumor weight (est.), dose: 100.0 mg/kg/injection, schedule: Q07DX005 (ip), vehicle: saline with Tween-80): 92 % of control and 99 % of control

Structure (SMILES): O=[N+]([O-])c1ccc(-n2[nH]nnc2=S)cc1
- T/C [13]: 101 % of control and 119 % of control
- T/C (endpoint: median tumor weight change, dose: 250.0 mg/kg/injection, schedule: Q01DX001 (ip), vehicle: saline with Tween-80): 112 % of control

Structure (SMILES): C[Si](C)(C)n1nnn(-c2ccccc2)c1=O
- T/C (endpoint: mean tumor weight, dose: 25.0 mg/kg/injection, schedule: Q07DX006 (ip), vehicle: saline with Tween-80): 100 % of control
- T/C (endpoint: mean tumor weight, dose: 50.0 mg/kg/injection, schedule: Q07DX006 (ip), vehicle: saline with Tween-80): 164 % of control
- T/C (endpoint: mean tumor weight, dose: 400.0 mg/kg/injection, schedule: Q07DX006 (ip), vehicle: saline with Tween-80): 102 % of control
- T/C [10]: 79 % of control
- T/C [11]: 65 % of control
- T/C [12]: 97 % of control
- T/C (endpoint: median tumor weight (est.), dose: 200.0 mg/kg/injection, schedule: Q07DX005 (ip), vehicle: saline with Tween-80): 77 % of control
- T/C (endpoint: median tumor weight (est.), dose: 400.0 mg/kg/injection, schedule: Q07DX005 (ip), vehicle: saline with Tween-80): 87 % of control

Structure (SMILES): COC1C(O)CC(OC2C(C)OC(Oc3cc(O)c4c(O)c5c(cc4c3)C[C@@H]([C@H](OC)C(=O)[C@@H](O)[C@@H](C)O)[C@H](OC3CC(OC4CC(OC6CC(C)(O)C(O)C(C)O6)C(O)C(C)O4)C(O)C(C)O3)C5=O)CC2OC(C)=O)OC1C (stereo partly specified)
- T/C (endpoint: median tumor weight (est.), dose: 18.75 mg/kg/injection, schedule: Q07DX005 (ip), vehicle: suspension in saline): 207 % of control
- T/C (endpoint: median tumor weight (est.), dose: 75.0 mg/kg/injection, schedule: Q07DX005 (ip), vehicle: suspension in saline): 66 % of control
- T/C (endpoint: median tumor weight (est.), dose: 150.0 mg/kg/injection, schedule: Q07DX005 (ip), vehicle: suspension in saline): 111 % of control
- T/C (endpoint: median tumor weight (est.), dose: 300.0 mg/kg/injection, schedule: Q07DX005 (ip), vehicle: suspension in saline): 123 % of control
